Common to all, as to format: cell-based, human
For assay [1], the system named is HCT116 (colorectal carcinoma, K Ras G13D) cells. Put plainly: Cell proliferation (Alamar Blue) assay, HCT116. The note with it: Homo sapiens, HCT-116, HCT116 cells. In short, it runs like this:
(§1)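 5000 cells/well, 16-24 h attach; cpd 0.0005-10 uM (3-fold dilns) x 72 h, 37° C./5% CO2; Alamar Blue 1× 1-3 h; fluor 540/590 nm; IC50, variable-slope sigmoid.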

Assay [2] has as its system phosphorylation of RSK1(S380) (the downstream target of ERK1/2). Description: Phospho-RSK1(S380) ELISA assay in HT-29 cells. As to conditions: Homo sapiens, HT-29, HT29 cells, read-out: Mechanistic Cell Assay RSK1 Phos HT29 IC50. In short, it runs like this: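 IC50 values derive from a variable-slope sigmoidal fit of sandwich-ELISA signal (450 nm) for RSK1 Ser380 phosphorylation. The cells were B-RafV600E HT-29 colorectal line, exposed to serially diluted compound for 2 h after overnight seeding, then lysed at 4° C.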
For orientation: In an ELISA, binding on a coated surface is turned into a signal by an enzyme label.

The subject of assay [3] is HT-29 (colorectal carcinoma, B-RafV600E) cells. Put plainly: Cell proliferation (Alamar Blue) assay, HT-29. As to conditions: Homo sapiens, HT-29, HT29 cells. In short, it runs like this: as §1
On the technique in general: Resazurin is reduced to fluorescent resorufin, in cell work by metabolically active cells.

Like-named read-outs stand apart in the source and are kept apart here.

For orientation: IC50 means the midpoint of a concentration-inhibition curve.

For the compound `Cc1cnc(Nc2ccc(F)cc2Cl)nc1-n1cnc(C(=O)NC(CO)c2cccc(Cl)c2)c1` (stereo not drawn) [Example 166, 1-(2-((2-chloro-4-fluorophenyl)amino)-5-methyl-pyrimidin-4-yl)-N-(1-(3-chlorophenyl)-2-hydroxy-ethyl)-1H-imidazole-4-carboxamide], the results for the IC50 in assay [1], in assay [2] (phospho-RSK1(S380)) and in assay [3] were greater than 2500 nM, 250 to 500 nM and 500 to 2500 nM, respectively.
As to `Cc1cn(-c2ccnc(Nc3ccc(F)cc3)n2)cc1C(=O)NC(CO)c1cccc(Cl)c1` (stereo not drawn) [Example 110, N-(1-(3-chloro-phenyl)-2-hydroxy-ethyl)-1-(2-((4-fluoro-phenyl)-amino)pyrimidin-4-yl)-4-methyl-1H-pyrrole-3-carboxamide], the IC50 in assay [1], in assay [2] (phospho-RSK1(S380)) and in assay [3] was greater than 2500 nM each time.
For the compound `Cc1cnc(N[C@H]2CCOC2)nc1-n1cnc(C(=O)NCc2cccc(C#N)c2)c1` [Example 310, (S)-N-(3-cyanobenzyl)-1-(5-methyl-2-((tetrahydrofuran-3-yl)amino)pyrimidin-4-yl)-1H-imidazole-4-carboxamide], the IC50 in assay [1], in assay [2] and in assay [3] was greater than 2500 nM in each case.
In the case of `CNCCNC[C@@H](NC(=O)c1cn(-c2nc(NC3CCOCC3)ncc2C)cn1)c1cccc(Cl)c1` [Example 345], the figures for the IC50 in assay [1], in assay [2] and in assay [3] were 500 to 2500 nM, greater than 2500 nM and 500 to 2500 nM, respectively.
Take `Cc1cnc(Nc2ccc(F)cc2)nc1-n1cnc(C(=O)NC(CN)c2cccc(Cl)c2)c1` (stereo not drawn) [Example 177, N-(2-amino-1-(3-chlorophenyl)ethyl)-1-(2-((4-fluorophenyl)amino)-5-methylpyrimidin-4-yl)-1H-imidazole-4-carboxamide]: the IC50 in assay [1] is 100 to 250 nM; in assay [2] (phospho-RSK1(S380)), 100 to 250 nM; in assay [3], no more than 100 nM.
Take `Cc1cnc(NC2CCOC2)cc1-n1ccc(C(=O)NC(CO)c2cccc(Cl)c2)c1` (stereo not drawn) [Example 165, N-(1-(3-chloro-phenyl)-2-hydroxy-ethyl)-1-(5-methyl-2-((tetra-hydrofuran-3-yl)amino)pyridin-4-yl)-1H-pyrrole-3-carboxamide]: the IC50 in assay [1] is greater than 2500 nM; in assay [2] (phospho-RSK1(S380)), 500 to 2500 nM; in assay [3], greater than 2500 nM.
On to `Cc1cnc(Nc2ccc(F)c(N3CCOCC3)c2)nc1-n1ccc(C(=O)NC(CO)c2cccc(Cl)c2)c1` (stereo not drawn) [Example 175, N-(1-(3-chlorophenyl)-2-hydroxyethyl)-1-(2-((4-fluoro-3-morpholinophenyl)amino)-5-methylpyrimidin-4-yl)-1H-pyrrole-3-carboxamide], for which the IC50 is 250 to 500 nM in assay [1], 100 to 250 nM in assay [2] (phospho-RSK1(S380)) and no more than 100 nM in assay [3].
Take `Cc1cn(-c2ccnc(Nc3ccccc3)c2)cc1C(=O)N[C@H](CO)c1cccc(Cl)c1` [Example 183, (S)-N-(1-(3-chlorophenyl)-2-hydroxyethyl)-4-methyl-1-(2-(phenylamino)pyridin-4-yl)-1H-pyrrole-3-carboxamide]: the IC50 in assay [1] is greater than 2500 nM; in assay [2] (phospho-RSK1(S380)), 500 to 2500 nM; in assay [3], greater than 2500 nM.
As to `Cc1cnc(NC2CCOCC2)nc1-n1cnc(C(=O)N[C@H](CNCCO)c2cccc(Cl)c2)c1` [Example 333, (S)-N-(1-(3-chlorophenyl)-2-((2-hydroxyethyl)amino)ethyl)-1-(5-methyl-2-((tetrahydro-2H-pyran-4-yl)amino)pyrimidin-4-yl)-1H-imidazole-4-carboxamide], the IC50 in assay [1], in assay [2] and in assay [3] was no more than 100 nM throughout.
For `Cc1cnc(Nc2ccc3c(c2)OCO3)nc1-n1ccc(C(=O)NC(CO)c2cccc(Cl)c2)c1` (stereo not drawn) [Example 42, 1-(2-(benzo[d][1,3]dioxol-5-ylamino)-5-methyl-pyrimidin-4-yl)-N-(1-(3-chloro-phenyl)-2-hydroxy-ethyl)-1H-pyrrole-3-carboxamide], the figures for the IC50 in assay [1], in assay [2] (phospho-RSK1(S380)) and in assay [3] were 250 to 500 nM, 500 to 2500 nM and 250 to 500 nM, respectively.
Turning to `Cc1cnc(Nc2ccc(F)cc2)nc1-n1cnc(C(=O)NC(CO)c2cccc(Cl)c2)c1` (stereo not drawn) [Example 155, N-(1-(3-chlorophenyl)-2-hydroxy-ethyl)-1-(2-((4-fluoro-phenyl)amino)-5-methyl-pyrimidin-4-yl)-1H-imidazole-4-carboxamide], the IC50 in assay [1] is 500 to 2500 nM; in assay [2] (phospho-RSK1(S380)), 100 to 250 nM; in assay [3], 250 to 500 nM.
For `Cc1cnc(Nc2ccc3c(c2)OCO3)nc1-n1ccc(C(=O)NC(CO)c2ccccc2)c1` (stereo not drawn) [Example 47, 1-(2-(benzo[d][1,3]dioxol-5-ylamino)-5-methyl-pyrimidin-4-yl)-N-(2-hydroxy-1-phenylethyl)-1H-pyrrole-3-carboxamide], the IC50 in assay [1] lay in the range of 250 to 500 nM; in assay [2] (phospho-RSK1(S380)), 250 to 500 nM; in assay [3], 100 to 250 nM.
With `Cc1cnc(Nc2ccnn2C)nc1-n1cnc(C(=O)N[C@H](CO)c2cccc(Cl)c2)c1` [Example 277, (S)-N-(1-(3-chlorophenyl)-2-hydroxyethyl)-1-(5-methyl-2-((1-methyl-1H-pyrazol-5-yl)amino)pyrimidin-4-yl)-1H-imidazole-4-carboxamide], the IC50 in assay [1] lay in the range of 250 to 500 nM; in assay [2] (phospho-RSK1(S380)), 500 to 2500 nM; in assay [3], 250 to 500 nM.
In the case of `COc1cc(Nc2ncc(C)c(-n3ccc(C(=O)N[C@H](CO)c4ccc(F)c(Cl)c4)c3)n2)cc(OC)c1OC` [Example 126, (S)-N-(1-(3-chloro-4-fluorophenyl)-2-hydroxy-ethyl)-1-(5-methyl-2-((3,4,5-trimethoxy-phenyl)amino)pyrimidin-4-yl)-1H-pyrrole-3-carboxamide], the IC50 in assay [1] was no more than 100 nM; in assay [2] (phospho-RSK1(S380)) it was 100 to 250 nM; in assay [3], 100 to 250 nM.
On to `Cc1cnc(Nc2ccc3c(c2)OCO3)nc1-n1cnc(C(=O)N[C@H](CO)c2cccc(Cl)c2)c1` [Example 48, (S)-1-(2-(benzo[d][1,3]dioxol-5-ylamino)-5-methyl-pyrimidin-4-yl)-N-(1-(3-chloro-phenyl)-2-hydroxy-ethyl)-1H-imidazole-4-carboxamide], for which the IC50 fell in the range of 500 to 2500 nM in assay [1], 250 to 500 nM in assay [2] (phospho-RSK1(S380)) and 250 to 500 nM in assay [3].
Regarding `Cc1cnc(Nc2ccc3c(c2)OCCC3)nc1-n1ccc(C(=O)NC(CO)c2ccccc2)c1` (stereo not drawn) [Example 186, 1-(2-(chroman-7-ylamino)-5-methylpyrimidin-4-yl)-N-(2-hydroxy-1-phenylethyl)-1H-pyrrole-3-carboxamide], the IC50 in assay [1] is 250 to 500 nM; in assay [2] (phospho-RSK1(S380)), 500 to 2500 nM; in assay [3], 500 to 2500 nM.
For the compound `O=C(N[C@H](CO)c1cccc(Cl)c1)c1cn(-c2ccnc(Nc3ccccc3)c2)cn1` [Example 72, (S)-N-(1-(3-chlorophenyl)-2-hydroxy-ethyl)-1-(2-(phenylamino)pyridin-4-yl)-1H-imidazole-4-carboxamide], the IC50 in assay [1] is greater than 2500 nM; in assay [2] (phospho-RSK1(S380)) it was no more than 100 nM; in assay [3] it was 500 to 2500 nM.
Turning to `Cc1cc(Nc2ncc(C)c(-n3ccc(C(=O)NC(CO)c4cccc(Cl)c4)c3)n2)ccc1C1CCNCC1` (stereo not drawn) [Example 182, N-(1-(3-chlorophenyl)-2-hydroxyethyl)-1-(5-methyl-2-((3-methyl-4-(piperidin-4-yl)phenyl)amino)pyrimidin-4-yl)-1H-pyrrole-3-carboxamide], the IC50 in assay [1] fell in the range of 250 to 500 nM; in assay [2] (phospho-RSK1(S380)), 500 to 2500 nM; in assay [3], 500 to 2500 nM.
In the case of `CC(=O)OCc1c(Cl)cccc1CNC(=O)c1cn(-c2nc(NC3CCOCC3)ncc2C)cn1` [Example 340, 2-chloro-6-((1-(5-methyl-2-((tetrahydro-2H-pyran-4-yl)amino)pyrimidin-4-yl)-1H-imidazole-4-carboxamido)methyl)benzyl acetate], the IC50 in assay [1], in assay [2] and in assay [3] was no more than 100 nM in each case.
Take `Cc1cnc(NC2CCCCC2O)nc1-n1ccc(C(=O)NC(CO)c2ccc(F)c(Cl)c2)c1` (stereo not drawn) [Example 202, N-(1-(3-chloro-4-fluorophenyl)-2-hydroxyethyl)-1-(2-((2-hydroxycyclohexyl)amino)-5-methylpyrimidin-4-yl)-1H-pyrrole-3-carboxamide]: the IC50 is greater than 2500 nM in assay [1], greater than 2500 nM in assay [2] (phospho-RSK1(S380)) and 500 to 2500 nM in assay [3].
For the compound `CC[C@H](CO)Nc1ncc(C)c(-n2cnc(C(=O)NCc3cccc(Cl)c3CO)c2)n1` [Example 336, (R)-N-(3-chloro-2-(hydroxymethyl)benzyl)-1-(2-((1-hydroxybutan-2-yl)amino)-5-methylpyrimidin-4-yl)-1H-imidazole-4-carboxamide], the IC50 in assay [1] was 100 to 250 nM; in assay [2], no more than 100 nM; in assay [3] it was no more than 100 nM.
Turning to `Cc1cccc(C(CO)NC(=O)c2ccn(-c3nc(N[C@H]4CCOC4)ncc3C)c2)c1` (stereo partly drawn) [Example 187, N-(2-hydroxy-1-(m-tolyl)ethyl)-1-(5-methyl-2-(((S)-tetrahydrofuran-3-yl)amino)pyrimidin-4-yl)-1H-pyrrole-3-carboxamide], the values for the IC50 in assay [1], in assay [2] (phospho-RSK1(S380)) and in assay [3] were 500 to 2500 nM, 250 to 500 nM and 250 to 500 nM, respectively.
`O=C(NC(CO)c1ccccc1)c1ccn(-c2nc(Nc3ccccc3Cl)ncc2F)c1` (stereo not drawn) [Example 67, 1-(2-((2-chloro-phenyl)amino)-5-fluoro-pyrimidin-4-yl)-N-(2-hydroxy-1-phenylethyl)-1H-pyrrole-3-carboxamide]: the results for the IC50 in assay [1], in assay [2] (phospho-RSK1(S380)) and in assay [3] were greater than 2500 nM, 500 to 2500 nM and greater than 2500 nM, respectively.
